According to patent US10760110B2, “Antibiotic testing and screening system” (priority 2017, dated 2020):
Where two headings read alike, the source gives them in different places.

Test system: K. pneumoniae NVT1001 strains with ESBL or AmpC β-lactamase plasmids
Assay: Etest MIC of β-lactams, OmpK35/36 loss, ΔramR and/or extended-spectrum β-lactamase and AmpC β-lactamase (Table 8)
Assay type: cell-based, Klebsiella pneumoniae
Settings: Klebsiella pneumoniae
Procedure: DNA fragments of the resistance genes along with their flanking regions were amplified from clinical plasmids via PCR with specific primer pairs. The resulting PCR fragments were digested and then cloned into the plasmid pACYC177 or pACYC184. The resulting plasmids were then transformed into K. pneumoniae strain NVT1001 via electroporation. The recombinant bacteria were plated onto LB agar plates containing kanamycin (50 mg/L) or chloramphenicol (50 mg/L), and the presence of the cloned gene was confirmed via PCR and DNA sequencing.
The MICs of antibiotics were determined using the Etest (Biodisk AB, Sweden) according to the manufacturer's instructions. The MICs from the Etest, which fall between standard two-fold dilutions, were rounded up to the next highest two-fold value. The MICs of ceftazidime and cefotaxime against K. pneumoniae NVT1001 harbouring the pACYC177 plasmid with blaOXA-48 were further determined using a broth microdilution test according to the recommendations of the CLSI,^25 and the results were interpreted according to the breakpoints established by the CLSI in 2017.^25 Meanwhile, due to the lack of CLSI breakpoints in 2016 and 2017, the results for cephalothin were interpreted according to the breakpoints established by the CLSI in 2015,^26 and the results for moxifloxacin were interpreted according to the breakpoints established by the EUCAST in 2017.^27

[1] = CMY-2 on pACYC177, WT (NVT1001), read-out: MIC
[2] = CMY-2 on pACYC177, Δ35 (ΔompK35 mutant)
[3] = CMY-2 on pACYC177, Δ35/36 (ΔompK35/36 mutant)
[4] = CMY-2 on pACYC177, Δ36 (ΔompK36 mutant)
[5] = CMY-2 on pACYC177, ΔramR mutant
[6] = CMY-2 on pACYC177, ΔramRΔ35 (ΔramRΔompK35 mutant)
[7] = CMY-2 on pACYC177, ΔramRΔ35/36 (ΔramRΔompK35/36 mutant)
[8] = CMY-2 on pACYC177, ΔramRΔ36 (ΔramRΔompK36 mutant)
[9] = CTX-M-14 on pACYC177, WT (NVT1001), read-out: MIC
[10] = CTX-M-14 on pACYC177, Δ35 (ΔompK35 mutant)
[11] = CTX-M-14 on pACYC177, Δ35/36 (ΔompK35/36 mutant)
[12] = CTX-M-14 on pACYC177, Δ36 (ΔompK36 mutant)
[13] = CTX-M-14 on pACYC177, ΔramR mutant
[14] = CTX-M-14 on pACYC177, ΔramRΔ35 (ΔramRΔompK35 mutant)
[15] = CTX-M-14 on pACYC177, ΔramRΔ35/36 (ΔramRΔompK35/36 mutant)
[16] = CTX-M-14 on pACYC177, ΔramRΔ36 (ΔramRΔompK36 mutant)
[17] = CTX-M-15 on pACYC177, WT (NVT1001), read-out: MIC
[18] = CTX-M-15 on pACYC177, Δ35 (ΔompK35 mutant)
[19] = CTX-M-15 on pACYC177, Δ35/36 (ΔompK35/36 mutant)
[20] = CTX-M-15 on pACYC177, Δ36 (ΔompK36 mutant)
[21] = CTX-M-15 on pACYC177, ΔramR mutant
[22] = CTX-M-15 on pACYC177, ΔramRΔ35 (ΔramRΔompK35 mutant)
[23] = CTX-M-15 on pACYC177, ΔramRΔ35/36 (ΔramRΔompK35/36 mutant)
[24] = CTX-M-15 on pACYC177, ΔramRΔ36 (ΔramRΔompK36 mutant)
[25] = DHA-1-AmpR on pACYC177, WT (NVT1001), read-out: MIC
[26] = DHA-1-AmpR on pACYC177, Δ35 (ΔompK35 mutant)
[27] = DHA-1-AmpR on pACYC177, Δ35/36 (ΔompK35/36 mutant)
[28] = DHA-1-AmpR on pACYC177, Δ36 (ΔompK36 mutant)
[29] = DHA-1-AmpR on pACYC177, ΔramR mutant
[30] = DHA-1-AmpR on pACYC177, ΔramRΔ35 (ΔramRΔompK35 mutant)
[31] = DHA-1-AmpR on pACYC177, ΔramRΔ35/36 (ΔramRΔompK35/36 mutant)
[32] = DHA-1-AmpR on pACYC177, ΔramRΔ36 (ΔramRΔompK36 mutant)
[33] = SHV-12 on pACYC177, WT (NVT1001), read-out: MIC
[34] = SHV-12 on pACYC177, Δ35 (ΔompK35 mutant)
[35] = SHV-12 on pACYC177, Δ35/36 (ΔompK35/36 mutant)
[36] = SHV-12 on pACYC177, Δ36 (ΔompK36 mutant)
[37] = SHV-12 on pACYC177, ΔramR mutant
[38] = SHV-12 on pACYC177, ΔramRΔ35 (ΔramRΔompK35 mutant)
[39] = SHV-12 on pACYC177, ΔramRΔ35/36 (ΔramRΔompK35/36 mutant)
[40] = SHV-12 on pACYC177, ΔramRΔ36 (ΔramRΔompK36 mutant)
[41] = no supplemental plasmid, WT (NVT1001), read-out: MIC
[42] = no supplemental plasmid, Δ35 (ΔompK35 mutant)
[43] = no supplemental plasmid, Δ35/36 (ΔompK35/36 mutant)
[44] = no supplemental plasmid, Δ36 (ΔompK36 mutant)
[45] = no supplemental plasmid, ΔramR mutant
[46] = no supplemental plasmid, ΔramRΔ35 (ΔramRΔompK35 mutant)
[47] = no supplemental plasmid, ΔramRΔ35/36 (ΔramRΔompK35/36 mutant)
[48] = no supplemental plasmid, ΔramRΔ36 (ΔramRΔompK36 mutant)

Measured: MIC

C[C@@H](O)[C@H]1C(=O)N2C(C(=O)O)=C(S[C@@H]3CN[C@H](C(=O)N(C)C)C3)[C@H](C)[C@H]12 [Meropenem]
2 µg/mL: [4] | [11] | [15] | [16] | [39] | [47] | [48]
1 µg/mL: [35] | [40]
16 µg/mL: [3]
0.25 µg/mL: [1] | [2] | [5] | [6] | [17] | [18] | [20] | [21] | [22] | [25] | [26] | [28] | [30]
8 µg/mL: [7] | [8] | [19] | [27] | [32]
0.125 µg/mL: [10] | [12] | [13] | [14] | [29] | [33] | [34] | [36]
0.5 µg/mL: [43]
4 µg/mL: [23] | [24] | [31]
0.06 µg/mL: [9] | [37] | [38] | [41] | [42] | [44] | [45] | [46]

C[C@@H](O)[C@H]1C(=O)N2C(C(=O)O)=C(S[C@@H]3CN[C@H](C(=O)Nc4cccc(C(=O)O)c4)C3)[C@H](C)[C@H]12 [Ertapenem]
1 µg/mL: [1] | [2] | [5] | [6] | [25] | [26] | [28] | [29] | [30]
0.25 µg/mL: [10] | [12] | [13] | [14]
0.03 µg/mL: [42] | [44]
0.5 µg/mL: [17] | [18] | [20] | [21] | [22]
8 µg/mL: [11]
4 µg/mL: [4] | [35] | [39] | [40] | [47] | [48]
> 32 µg/mL: [3] | [7] | [8] | [19] | [23] | [24] | [27] | [31] | [32]
2 µg/mL: [43]
0.06 µg/mL: [33] | [34] | [36]
16 µg/mL: [15] | [16]
0.015 µg/mL: [41]
0.125 µg/mL: [9] | [37] | [38] | [45] | [46]
